Experimental data reported in patent publication US20170022258A1, “PEPTIDES FOR USE IN THE TREATMENT OF IL-1 RELATED DISEASES AND CONDITIONS” (C4M PHARMACEUTICALS PTY LTD., priority 2011, published 2017).
Where two headings read alike, the source gives them in different places. Non-standard residues stand in square brackets, D forms with d. Residues, ends and D or L forms follow the SMILES beside them.

Columns and labels:
[1] = tested on: IL-1α-induced IL-8 production by HT-29 cells; assay: IL-1α induced IL-8 production by HT-29 colonic epithelial cells; format: cell-based, human; settings: 10 ng/ml IL-1α
Protocol: (§1) Human colon epithelial cell lines HT-29 and Caco2 obtained from the European Collection of Animal Cell Cultures (ECACC) were used in cell cultures. Cells were routinely cultured at 37° C. in an atmosphere of 5% CO2 in 80 cm^2 tissue culture flasks in McCoy's and DMEM medium, respectively, supplemented with penicillin (10 u/ml), streptomycin (10 μg/ml), fungizone (0.5 μg/ml), and 10% (v/v) FCS (referred to as complete medium) until confluent.
(§2) Confluent monolayers were sub-cultured into 6-well plates for experimental protocols. Cells were grown in 6-well plates until confluent. Twenty-four hours prior to the experiment the confluent monolayers were washed and cultured in FCS-free McCoy's medium. Growth arrested cultures were then treated with fresh FCS-free medium and stimulated with vehicle controls or various doses of IL-1α added alone or in combination with other pro-inflammatory cytokines (TNF-α, IFN-γ) in the presence or absence of the peptide of sequence 4 or IL-1 ra, in a dose and time dependent manner.
Supernatants were collected, centrifuged to remove cellular debris and stored at −70° C. until assayed for extracellular inflammatory mediators. Total RNA for RT-PCR was extracted as described above. Cell counting and viability was routinely checked at the beginning and the end of the experiment by phase microscopy and by trypan blue exclusion using representative wells. Mycoplasma tests were performed during the experimental protocol. Production of soluble mediators was assessed by commercially available ELISA in supernatants, RT-PCR in total RNA extractants and nitric oxide, as described in Kolios, G, et al. (1995). Br J Pharmacol, 116, 2866-2872, the contents of which are incorporated herein by reference.
HT 29 and Caco2 colonic epithelial cell lines were stimulated with 10 ng/ml of IL-la in the presence of 100 or 500 ng/ml of the peptide of sequence 4.

[2] = tested on: IL-1α-induced IL-8 production by Caco2 cells; assay: IL-1α induced IL-8 production by Caco2 colonic adenocarcinoma cells; format: cell-based, human; settings: peptide 100 ng/ml, FIG. 2
Protocol: as §1, §2
(§3) Supernatants were collected, centrifuged to remove cellular debris and stored at −70° C. until assayed for extracellular inflammatory mediators. […] Production of soluble mediators was assessed by commercially available ELISA in supernatants, RT-PCR in total RNA extractants and nitric oxide, as described in Kolios, G, et al. (1995). […]

[3] = tested on: IL-1α+IFN-γ induced IL-17 production by HT-29 cells; assay: IL-1α+IFN-γ induced IL-17 production by HT-29 cells; format: cell-based, human; settings: 10 ng/ml IL-1α+300 U IFN-γ, peptide 10 ng/ml and 500 ng/ml, stimulated control 13.14±3.92, n=6, p<0.001
Protocol: as §1, §2, §3

[4] = Solubility of peptide under different solvent conditions; format: physicochemical; settings: 30 min room temperature
Protocol: 100 mg of each peptide was added to 100 ml total of water plus the solvents, and the solution was gently agitated for 30 min at room temperature.

[5] = tested on: thoroughbred having equine laminitis; assay: Effect of peptides on equine laminitis (Obel Lameness Grades); format: in vivo, horse
Protocol: Each of the peptides having the sequences 13, 14, 19 and 4 were also tested to determine their effect on equine laminitis. Each peptide was administered intravenously to a thoroughbred having equine laminitis. The peptides were prepared as compositions containing 1 mg of peptide dissolved in 5 ml of a solution comprising water, bicarbonate and either benzyl alcohol or methanol. The effect of the peptides on equine laminitis was judged by the Obel Lameness Grades, which is a system of rating degrees of lameness resulting from laminitis. […] Obel Grade III horses do resist having a foreleg lifted, and are reluctant to walk. Obel Grade IV horses will walk only if forced. The Obel Score for each of the horses was measured before administration of the peptide and 24 hours after injection of the peptide. […] The effect in reducing laminitis which was caused by one single injection of the peptides on laminitis was short-lived. Therefore, the duration of the effect of the peptides in reducing laminitis was further assessed by attending veterinarians.

human subjects = assay: Testing of peptide 4 in human subjects for treatment of different diseases and conditions; format: in vivo; settings: 1 mg; for Duration: Single
Protocol: The peptide having the sequence 4 was tested to determine its effect on a range of different diseases in humans, horses and cows.
The peptides were prepared as compositions containing 1 mg of peptide dissolved in 5 ml of a solution comprising water, bicarbonate and either benzyl alcohol or methanol.

horses = assay: Equine case studies (inflammatory conditions); format: in vivo, horse
Protocol: In these case studies, 13 different horses each suffering from different inflammatory conditions were treated with peptide 4, which was administered by injection in a composition containing the peptide dissolved in 5 ml of a solution comprising water, bicarbonate and either benzyl alcohol or methanol.

solubility at 30 min ([4]; benzyl alcohol (0.1-1%) in water, benzyl alcohol (0.1-1%), 100 mg peptide in 100 ml, read-out: Solubility: Benzyl Alcohol): > 1000 µg/mL
solubility at 30 min ([4]; hydrochloric acid (0.1-1%) in water, hydrochloric acid (0.1-1%), 100 mg peptide in 100 ml water plus solvent, read-out: Solubility: Acid): < 1000 µg/mL
solubility at 30 min ([4]; sodium bicarbonate (0.1-1%) in water, sodium bicarbonate (0.1-1%), 100 mg peptide in 100 ml, read-out: Solubility: Base): < 1000 µg/mL
Compound: CC(=O)N[C@H](CC(C)C)C(=O)N1CCC[C@@H]1C(=O)N[C@H](CC(C)C)C(=O)N[C@H](C)C(=O)N[C@H](Cc1ccc(O)cc1)C(=O)N1CCC[C@@H]1C(=O)N[C@H](CCC(N)=O)C(=O)N[C@H](Cc1c[nH]c2ccccc12)C(=O)N[C@H](Cc1ccc(O)cc1)C(=O)NCC(=O)N1CCC[C@@H]1C(=O)N[C@@H](C(=O)N[C@H](Cc1c[nH]c2ccccc12)C(=O)N[C@H](CCC(=O)O)C(=O)N[C@H](Cc1ccccc1)C(=O)O)[C@H](C)O [SEQ ID NO. 4, Ac-LPLAYPQWYGPTWEF] (Ac-[dL][dP][dL][dA][dY][dP][dQ][dW][dY]G[dP][dT][dW][dE][dF]-OH; C-terminus assumed)
IL-1α-induced IL-8 production ([1]; peptide 500 ng/ml, IL-1α alone 67.455±0.125, n=6, p<0.01): 40.705±2.56 ng/ml per 106 cells
Effect on IL-1α-induced IL-8 production ([1]; peptide 100 or 500 ng/ml, FIG. 1): reduced IL-1α-induced IL-8 production in a concentration dependent manner
Effect on IL-1α-induced IL-8 secretion [2]: significant decrease
IL-1α+IFN-γ-induced IL-17 production [3]: 4.97±0.84 pg/ml per 106 cells
Change in Obel Score ([5]; 1 mg intravenously, before vs 24 hours after injection, most negative = greatest improvement): −2.9
Duration (days) of effect on laminitis ([5]; single 1 mg intravenous, averaged, report by veterinarians): 4 days
Effect (human subjects; Cancer Pain from Adrenal Cancer, IM, Repeated): Moderate
Effect (human subjects; Cancer Pain from Bone Metasta, IM, Repeated): Pronounced
Effect (human subjects; Cancer Pain from Lung Cancer, SC, Repeated): Pronounced
Effect (human subjects; Dermatitis, SC): Pronounced
Duration (human subjects; Dermatitis, SC): Single 96 hrs
Effect (human subjects; Emphysema, SC): Moderate
Duration (human subjects; Emphysema, SC): Single 48 hrs
Effect (human subjects; Lymphodema, IM): Pronounced
Duration (human subjects; Lymphodema, IM): Single 96 hrs
Effect (human subjects; Osteoarthritis, Joint): Mild
Duration (human subjects; Osteoarthritis, Joint): Single 48 hrs
Duration (human subjects; T1 Diabetes, IM): Single 96 hrs
Effect (human subjects; Tonsilitis, oral): Pronounced
Duration (human subjects; Tonsilitis, oral): Single 48 hrs
Period without inflammation post-administration (horses; Case 1): observed for 48 hours
Period of minimal pain and no heat post-administration (horses; Case 2): 48 hours post-
Observations (horses; Case 2: severe pain and heat in near fore hoof, 1 mg bolus intravenous): Minimal pain and no
Observations (horses; Case 3: years of mild laminitis, 1 mg bolus intravenous every 3rd day for three weeks, during period of treatment): Complete relief of all
Time post-administration at which symptoms returned (horses; Case 4): after 8 days. 10 days
Observations (horses; Case 4: near fore fetlock heat and pain, fluid build up in lower deep flexor tendon, 1 mg bolus intravenous, after 8 days): Fetlock completely
Period with no pain or palpation (horses; Case 5): observed for 14 days.
Period of complete pain relief and increased flexion (horses; Case 6): observed for 6 days.
Observations (horses; Case 6: four years of general knee joint pain, sodium hyaluranate (Synvisc) intra-articularly followed by 0.5 mg peptide 4): Complete pain relief
Observations (horses; Case 7: three years of general knee pain, sodium hyaluranate (Synvisc) intra-articularly followed by 0.5 mg peptide 4, no follow up treatment required): Complete pain relief
Period of pronounced relief of symptoms (horses; Case 8): over a 72 hour period.
Observations (horses; Case 9: severe muscle/ligament tear between shoulder and rib cage, 1 mg bolus intravenous, within 24 hours): Symptoms reduced
Observations (horses; Case 10: chronic joint pain in both knees and fetlocks, sodium hyaluranate (Synvisc) intra-articularly followed by 0.5 mg peptide 4, within 24 hours post-treatment): Significant pain relief,
Observations (horses; Case 11: mild work-related shin soreness, 1 mg bolus intravenous every 3rd day for a week, after the second injection): Significant improvement
Observations (horses; Case 12: mild work-related shin soreness, 1 mg bolus intravenous, after 24 hours post-administration): Significant pain relief
Observations (horses; Case 13: severe pain from inflammation and fluid build-up at 18 month old tendon injury, 1 mg weekly bolus intravenous): Complete relief of pain,
